# From ChEMBL document CHEMBL1201862, “PubChem BioAssay data set” (2004)
#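 How tested: cells in 96-well plates exposed to compound for 48 hours at five concentrations. At the GI50, growth is halved.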 Calls of active or inactive are those of the source. Cut-off read from the data, not from the text of the source: active = GI50 up to about 1.1 µM and inactive = higher.
# Key:
# Assay in all cases: growth of human tumour cells (NCI), 48 h
# [1] = test system: 786-0
# [2] = test system: A549
# [3] = test system: ACHN
# [4] = test system: CCRF-CEM
# [5] = test system: COLO 205
# [6] = test system: DMS-273
# [7] = test system: EKVX
# [8] = test system: HCC 2998
# [9] = test system: HCT-116
# [10] = test system: HCT-15
# [11] = test system: HL-60
# [12] = test system: HOP-18
# [13] = test system: HOP-62
# [14] = test system: HOP-92
# [15] = test system: IGROV-1
# [16] = test system: KM-20L2
# [17] = test system: LXFL 529
# [18] = test system: M19-MEL
# [19] = test system: MOLT-4
# [20] = test system: Malme-3M
# [21] = test system: NCI-H226
# [22] = test system: NCI-H23
# [23] = test system: OVCAR-3
# [24] = test system: OVCAR-5
# [25] = test system: OVCAR-8
# [26] = test system: RPMI-8226
# [27] = test system: RXF 393
# [28] = test system: RXF 631
# [29] = test system: SF-268
# [30] = test system: SF-295
# [31] = test system: SF-539
# [32] = test system: SK-MEL-28
# [33] = test system: SK-MEL-2
# [34] = test system: SK-OV-3
# [35] = test system: SN12C
# [36] = test system: SNB-19
# [37] = test system: SNB-78
# [38] = test system: SR
# [39] = test system: SW-620
# [40] = test system: TK-10
# [41] = test system: U-251
# [42] = test system: UACC-257
# [43] = test system: UACC-62
# [44] = test system: UO-31
# [45] = test system: XF498
# [46] = test system: A498
# [47] = test system: CAKI-1
# [48] = test system: DLD-1
# [49] = test system: DMS-114
# [50] = test system: HT-29
# [51] = test system: K562
# [52] = test system: KM12
# [53] = test system: LOX IMVI
# [54] = test system: M14
# [55] = test system: NCI-H460
# [56] = test system: NCI-H522
# [57] = test system: OVCAR-4
# [58] = test system: SK-MEL-5
# [59] = test system: SNB-75
compound,measurement,setting,value
Cc1cc2c(C)nn(Cc3ccc(Cl)cc3)c2c(C#N)c1C,GI50,[1],63.2 µM (inactive)
same,GI50,[2],> 100 µM (inactive)
same,GI50,[3],> 100 µM (inactive)
same,GI50,[4],> 100 µM (inactive)
same,GI50,[5],> 100 µM (inactive)
same,GI50,[6],> 100 µM (inactive)
same,GI50,[7],> 100 µM (inactive)
same,GI50,[8],> 100 µM (inactive)
same,GI50,[9],> 100 µM (inactive)
same,GI50,[10],> 100 µM
same,GI50,[11],> 100 µM (inactive)
same,GI50,[12],> 100 µM (inactive)
same,GI50,[13],> 100 µM (inactive)
same,GI50,[14],35.6 µM (inactive)
same,GI50,[15],> 100 µM (inactive)
same,GI50,[16],> 100 µM (inactive)
same,GI50,[17],> 100 µM (inactive)
same,GI50,[18],> 100 µM (inactive)
same,GI50,[19],> 10 µM (inactive)
same,GI50,[20],> 100 µM (inactive)
same,GI50,[21],> 100 µM (inactive)
same,GI50,[22],> 100 µM (inactive)
same,GI50,[23],> 100 µM (inactive)
same,GI50,[24],> 100 µM (inactive)
same,GI50,[25],> 100 µM (inactive)
same,GI50,[26],> 100 µM (inactive)
same,GI50,[27],45.9 µM (inactive)
same,GI50,[28],> 100 µM (inactive)
same,GI50,[29],> 100 µM (inactive)
same,GI50,[30],46.2 µM (inactive)
same,GI50,[31],> 100 µM (inactive)
same,GI50,[32],> 100 µM (inactive)
same,GI50,[33],> 100 µM (inactive)
same,GI50,[34],> 100 µM (inactive)
same,GI50,[35],> 100 µM (inactive)
same,GI50,[36],63.5 µM (inactive)
same,GI50,[37],> 100 µM (inactive)
same,GI50,[38],> 100 µM (inactive)
same,GI50,[39],> 100 µM (inactive)
same,GI50,[40],> 100 µM (inactive)
same,GI50,[41],> 100 µM (inactive)
same,GI50,[42],> 100 µM (inactive)
same,GI50,[43],> 100 µM (inactive)
same,GI50,[44],> 100 µM (inactive)
same,GI50,[45],39.1 µM (inactive)
Cn1cnc([N+](=O)[O-])c1Sc1nnnn1-c1ccccc1,GI50,[1],16.7 µM (inactive)
same,GI50,[46],18.7 µM (inactive)
same,GI50,[2],23.9 µM (inactive)
same,GI50,[3],13.9 µM (inactive)
same,GI50,[47],15.9 µM (inactive)
same,GI50,[4],2.39 µM (inactive)
same,GI50,[5],8.09 µM (inactive)
same,GI50,[48],6.68 µM (inactive)
same,GI50,[49],15.5 µM (inactive)
same,GI50,[6],15 µM (inactive)
same,GI50,[7],16 µM (inactive)
same,GI50,[8],18.5 µM (inactive)
same,GI50,[9],11.3 µM (inactive)
same,GI50,[12],1.58 µM (inactive)
same,GI50,[13],> 100 µM (inactive)
same,GI50,[14],2.72 µM (inactive)
same,GI50,[50],15.7 µM (inactive)
same,GI50,[15],16.2 µM (inactive)
same,GI50,[51],3.94 µM (inactive)
same,GI50,[52],17.4 µM (inactive)
same,GI50,[53],5.65 µM (inactive)
same,GI50,[17],4.27 µM (inactive)
same,GI50,[54],10.9 µM (inactive)
same,GI50,[18],12.1 µM (inactive)
same,GI50,[19],2.17 µM (inactive)
same,GI50,[20],7.76 µM (inactive)
same,GI50,[21],17.3 µM (inactive)
same,GI50,[22],19.4 µM (inactive)
same,GI50,[55],16.5 µM (inactive)
same,GI50,[56],2.34 µM (inactive)
same,GI50,[23],13.6 µM (inactive)
same,GI50,[57],10.4 µM (inactive)
same,GI50,[24],17.8 µM (inactive)
same,GI50,[25],13.8 µM (inactive)
same,GI50,[26],11.4 µM (inactive)
same,GI50,[28],14.2 µM (inactive)
same,GI50,[29],19.5 µM (inactive)
same,GI50,[30],17.8 µM (inactive)
same,GI50,[31],12.2 µM (inactive)
same,GI50,[32],14.4 µM (inactive)
same,GI50,[33],14.1 µM (inactive)
same,GI50,[58],16.1 µM (inactive)
same,GI50,[34],46.9 µM (inactive)
same,GI50,[35],15.7 µM (inactive)
same,GI50,[36],33.2 µM (inactive)
same,GI50,[59],16.4 µM (inactive)
same,GI50,[37],13.7 µM (inactive)
same,GI50,[39],7.05 µM (inactive)
same,GI50,[40],17.9 µM (inactive)
same,GI50,[41],13 µM (inactive)
same,GI50,[42],13.7 µM (inactive)
same,GI50,[43],13.9 µM (inactive)
same,GI50,[44],13.7 µM (inactive)
same,GI50,[45],11.6 µM (inactive)
Cc1cc(Br)ccc1/N=N/C1C(=O)ON=C1c1ccccc1 (centres undefined),GI50,[1],> 100 µM (inactive)
same,GI50,[46],35 µM (inactive)
same,GI50,[2],25.7 µM (inactive)
same,GI50,[3],63.4 µM (inactive)
same,GI50,[5],16 µM (inactive)
same,GI50,[48],90.2 µM (inactive)
same,GI50,[49],65.6 µM (inactive)
same,GI50,[6],> 100 µM (inactive)
same,GI50,[7],67 µM (inactive)
same,GI50,[8],26.5 µM (inactive)
same,GI50,[9],46.5 µM (inactive)
same,GI50,[11],32.1 µM (inactive)
same,GI50,[12],> 100 µM (inactive)
same,GI50,[13],> 100 µM (inactive)
same,GI50,[14],> 100 µM (inactive)
same,GI50,[50],47.1 µM (inactive)
same,GI50,[15],> 100 µM (inactive)
same,GI50,[51],45 µM (inactive)
same,GI50,[16],55.2 µM (inactive)
same,GI50,[52],> 100 µM (inactive)
same,GI50,[53],63.4 µM (inactive)
same,GI50,[17],69.5 µM (inactive)
same,GI50,[54],> 100 µM (inactive)
same,GI50,[18],67.6 µM (inactive)
same,GI50,[19],31.3 µM (inactive)
same,GI50,[20],> 100 µM (inactive)
same,GI50,[21],> 100 µM (inactive)
same,GI50,[22],> 100 µM (inactive)
same,GI50,[55],55 µM (inactive)
same,GI50,[56],40.6 µM (inactive)
same,GI50,[23],> 100 µM (inactive)
same,GI50,[57],> 100 µM (inactive)
same,GI50,[24],> 100 µM (inactive)
same,GI50,[25],> 100 µM (inactive)
same,GI50,[26],28.4 µM (inactive)
same,GI50,[27],52.4 µM (inactive)
same,GI50,[28],51.6 µM (inactive)
same,GI50,[29],> 100 µM (inactive)
same,GI50,[30],> 100 µM (inactive)
same,GI50,[31],> 100 µM (inactive)
same,GI50,[32],> 100 µM (inactive)
same,GI50,[33],> 100 µM (inactive)
same,GI50,[58],53.5 µM (inactive)
same,GI50,[34],> 100 µM (inactive)
same,GI50,[35],> 100 µM (inactive)
same,GI50,[36],> 100 µM (inactive)
same,GI50,[59],> 100 µM (inactive)
same,GI50,[37],> 100 µM (inactive)
same,GI50,[38],48 µM (inactive)
same,GI50,[39],> 100 µM (inactive)
same,GI50,[40],69.3 µM (inactive)
same,GI50,[41],> 100 µM (inactive)
same,GI50,[42],> 100 µM (inactive)
same,GI50,[43],> 100 µM (inactive)
same,GI50,[44],46.9 µM (inactive)
